Test results published in publication PMC12484856, “A Self-Assembling Senolytic Prodrug with Enhanced Bioavailability and Selective Activation for Targeting Senescent Retinal Pigment Epithelium” (Biomaterials Research, 2025).

Target: T1, MDM2 (Homo sapiens, UniProt Q00987)
T1 construct: MDM2 (Abcam, ab167941)
Test: fluorescence polarization competition with FITC-p53 peptide
Assay type: binding
Text: fluorescence polarization competition with FITC-p53 peptide on MDM2 | analysis of the interaction of N201 with MDM2 instead of with fluorescein isothiocyanate (FITC)–p53.

T1 sequence (Q00987 whole entry): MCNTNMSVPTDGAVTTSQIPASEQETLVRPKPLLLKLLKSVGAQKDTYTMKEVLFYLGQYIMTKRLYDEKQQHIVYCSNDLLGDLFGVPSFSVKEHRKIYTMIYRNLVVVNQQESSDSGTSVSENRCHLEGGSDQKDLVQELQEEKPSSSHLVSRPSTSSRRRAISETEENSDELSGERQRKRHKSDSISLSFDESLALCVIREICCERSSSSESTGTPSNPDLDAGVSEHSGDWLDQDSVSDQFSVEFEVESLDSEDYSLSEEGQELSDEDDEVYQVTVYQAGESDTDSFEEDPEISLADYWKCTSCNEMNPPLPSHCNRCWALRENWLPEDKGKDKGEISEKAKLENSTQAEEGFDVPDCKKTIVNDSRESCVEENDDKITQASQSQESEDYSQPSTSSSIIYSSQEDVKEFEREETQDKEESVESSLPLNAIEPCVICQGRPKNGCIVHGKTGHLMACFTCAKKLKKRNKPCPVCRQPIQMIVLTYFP

| IC50 [nM] | Compound |
| --- | --- |
| 200 | COc1ccc(C2=NC(c3ccc(Cl)cc3)C(c3ccc(Cl)cc3)N2C(=O)N2CCN(CCO[C@@H]3O[C@H](CO)[C@H](O)[C@H](O)[C@H]3O)CC2)c(OC(C)C)c1 (some centres unmarked) [N201-gal] |
| 130 | COc1ccc(C2=NC(c3ccc(Cl)cc3)C(c3ccc(Cl)cc3)N2C(=O)N2CCN(CCO)CC2)c(OC(C)C)c1 (centres unmarked) [N201] |
